Assay results published in PMC9786284, “Synthesis and Antiproliferative Effect of Halogenated Coumarin Derivatives” (Molecules, 2022).

Experiments:
[1] = system: Nthy-ori-3-1 normal thyroid cells; experiment: Annexin V-FITC/PI apoptosis assay by flow cytometry; assay type: cell-based; details: 20 μM, 24 h
Experimental: (§1) To determine whether the two studied coumarins 2k and 2h, induce cell death through apoptosis or necrosis, we performed double staining with fluorescent Annexin V-FITC/propidium iodide (PI) apoptosis detection kit in TPC-1 and Nthy-ori-3-1 as control cells. This assay is based on the ability of Annexin to recognize phosphatidylserine (PS), a membrane phospholipid exposed on the cell surface of apoptotic cells, while PI is able to bind the DNA of necrotic cells. Thanks to this combination, […] cell populations are obtained: cells negative for Annexin V-FITC and PI indicate live cells, Annexin V-FITC-positive/PI-negative and Annexin V-FITC-positive/PI-positive indicate early and late apoptotic cells, while cells negative for Annexin V-FITC and PI-positive are necrotic.
(§2) To investigate cell death induced by coumarins treatment, a flow cytometric analysis using the cell apoptosis kit Annexin V/propidium iodide (PI) double staining uptake (Life Technologies, Monza, Italy) was employed. Control and PTC-derived cells, at the density of 5 × 10^4 cells/mL, were seeded in 6-well plates (Corning) with complete DMEM/F12. First, the cells were treated with 20 µM of coumarins for 24 h. Cells were washed once with PBS 1X and stained according to the kit’s protocol. Stained cells were then analyzed by flow cytometry, measuring the fluorescence emission at 530 and 620 nm using a 488 nm excitation laser (MoFloAstrios EQ, Beckman Coulter). Cell apoptosis was analyzed using Software Summit Version 6.3.1.1, Beckman Coulter.

TPC-1 cells [2] = experiment: as above; assay type: cell-based; details: for total apoptotic cells: 20 μM, 24 h, untreated cells 10%; for viability at 20 µM: Homo sapiens, TPC1, 24 h, untreated cells 87%, read-out: viable cells
Experimental: as §1, §2

TPC-1 cells [3] = experiment: Cell cycle analysis by flow cytometry (PI/RNase staining); assay type: cell-based; details: 20 µM, 24 h, compared with untreated cells
Experimental: Among the potential mechanisms involved in the treatment of cancer, there is the arrest of the cell cycle. To detect whether the cytotoxicity of coumarins 2k and 2h resulted from cell cycle progression, the effects on the cell cycle of TPC-1 cells were analyzed by flow cytometry after labeling with PI (propidium iodide)/RNase Staining Buffer detection kit. […] According to apoptosis results, the cell cycle arrest could be responsible for the cytotoxicity in cancer cells. In the present study, it was observed that coumarin 2k determined cell arrest of TPC-1 cells in the G2/M phase, indicating the apoptotic mode of cell death and inhibition of DNA synthesis (S phase reduction). This finding is consistent with previous investigations reporting that coumarins able to induce cytotoxicity by inducing G2/M and S phases arrest in different cancer cell lines.
The cells were seeded (5 × 10^4 cells/mL) in six-well plates (Corning, Tewksbury, MA, USA). After 24 h, they were treated with coumarins (20 µM) for 24 h. Cell cycle analysis was performed by using the Invitrogen™ FxCycle™ PI/RNase Staining Solution (according to the manufacturer’s instructions, Thermo Fisher Scientific, Waltham, MA, USA), and then the DNA content was evaluated by flow cytometry (MoFloAstrios EQ, Beckman Coulter, Brea, CA, USA). The analysis of cell cycle phase distribution was accomplished via Kaluza Flow Cytometry Analysis Software (Software Version 1.2, Beckman Coulter) by setting 3 gates in each single parameter histogram: G0/G1, S, and G2/M.

Nthy-ori-3-1 cells = experiment: as above; assay type: cell-based; details: control cells (Nthy-ori-3-1); 20 µM, 24 h
[4] = Cyclic voltammetry in anhydrous acetonitrile; assay type: physicochemical; details: 100 mV s−1, Pt pseudo-reference (Fc+/0 at +0.45 V)
Experimental: It has been reported that coumarins and their derivatives are able to regulate the reactive oxygen species (ROS). For example, esculetin induces cytotoxicity in pancreatic cancer cells decreasing ROS and protein levels of the ROS-dependent transcription factor NF-κB [49]. On the other end, coumarins induce the generation and accumulation of ROS in cancer cells causing cell cycle arrest and apoptotic cell death. […] Conversely, 2h produces an antiproliferative response in TPC-1 cells by scavenging ROS. In an attempt of a better understanding of the results, such compounds were explored from an electrochemical point of view by means of cyclic voltammetry in anhydrous acetonitrile.
The electrochemical properties of compounds 2h and 2k were investigated by cyclic voltammetry (CV) technique under an inert atmosphere. The measurements have been carried out at 100 mV s^−1 with a three-electrode cell using a platinum tip as a working electrode, a platinized titanium net as a counter electrode, and a platinum wire as a pseudo-reference electrode. The electrochemical measurements were performed at room temperature using an AUTOLAB PGSTAT302N (Metrohm, Herisau, Switzerland) potentiostat/galvanostat controlled with the NOVA software. All the solutions were prepared in anhydrous degassed acetonitrile with 0.1 M [n-Bu4N][PF6] as supporting electrolyte: in this condition, the Fc^+/0 redox couple is centered at +0.45 V.

oxidation peak potential [4]	reduction feature potential [4]	SMILES	induction of apoptosis [1]	total apoptotic cells (TPC-1 cells [2])	viability at 20 µM (TPC-1 cells [2])	effect on G2/M phase cell population (TPC-1 cells [3])	effect on S phase cell population (TPC-1 cells [3])	effect on the cell cycle (Nthy-ori-3-1 cells)
0.75 V	−0.95 V	N#Cc1cc2cc(I)cc(I)c2oc1=O [2k, 6,8-diiodo-2-oxo-2H-chromene-3-carbonitrile]	No significant induction of apoptosis	34%	62%	increase in TPC-1 cells in the G2/M phase	decreases the cell population in the S phase	No effect on the cell cycle
0.6 V	−1.02 V	N#Cc1cc2cc(Br)cc(Br)c2oc1=O [2h, 6,8-dibromo-2-oxo-2H-chromene-3-carbonitrile]	No significant induction of apoptosis	18%	77.7%	same trend		No effect on the cell cycle
